The source made the active and inactive calls. No rule for the calls is given here.
Tested on: CCRIS mutagenicity, Ames/micronucleus/aberration tests
Assay: CCRIS mutagenicity studies

SMILES: Cn1c(N)nc2ncc(-c3ccccc3)cc21
- mutagenic call (End Point: IN VITRO MICRONUCLEUS, Test System: CHL/IU CELLS, Metabolic Activation: RAT, LIVER, S-9, PHENOBARBITAL AND 5,6-BENZOFLAVONE): active; positive
- mutagenic call (End Point: IN VIVO MICRONUCLEUS, Test System: BONE MARROW POLYCHROMATIC ERYTHROCYTES, Species: MOUSE, Strain/Sex: BALB/C/MALE, Route: IP INJECTION): active; positive
- mutagenic call (End Point: IN VIVO MICRONUCLEUS, Test System: SPLENOCYTES, Species: MOUSE, Strain/Sex: BALB/C, Route: IO): active; positive only for 48.8 mg dose at either 2 or 16 days after treatment
- mutagenic call (Test System: AMES SALMONELLA TYPHIMURIUM, Strain/Indicator: TA98(1,8-DNP6), Metabolic Activation: RAT, LIVER, S-9, AROCLOR, Method: PREINCUBATION): active; positive
- mutagenic call (Test System: AMES SALMONELLA TYPHIMURIUM, Strain/Indicator: TA98(1,8-DNP6), Metabolic Activation: RAT, LIVER, S-9, Method: STANDARD PLATE): active; positive
- mutagenic call (Test System: AMES SALMONELLA TYPHIMURIUM, Strain/Indicator: TA98, Metabolic Activation: HUMAN, LIVER, MICROSOMES, Method: PREINCUBATION): active; positive
- mutagenic call (Test System: AMES SALMONELLA TYPHIMURIUM, Strain/Indicator: TA98, Metabolic Activation: MONKEY, LIVER, MICROSOMES, Method: PREINCUBATION): active; positive
- mutagenic call (Test System: AMES SALMONELLA TYPHIMURIUM, Strain/Indicator: TA98, Metabolic Activation: MOUSE, KIDNEY, S-9, PHENETHYL ISOTHIOCYANATE, Method: STANDARD PLATE): inactive; negative
- mutagenic call (Test System: AMES SALMONELLA TYPHIMURIUM, Strain/Indicator: TA98, Metabolic Activation: MOUSE, KIDNEY, S-9, Method: STANDARD PLATE): inactive; negative
- mutagenic call (Test System: AMES SALMONELLA TYPHIMURIUM, Strain/Indicator: TA98, Metabolic Activation: MOUSE, LIVER, S-9, PHENETHYL ISOTHIOCYANATE, Method: STANDARD PLATE): active; positive
- mutagenic call (Test System: AMES SALMONELLA TYPHIMURIUM, Strain/Indicator: TA98, Metabolic Activation: MOUSE, LIVER, S-9, Method: STANDARD PLATE): active; positive
- mutagenic call (Test System: AMES SALMONELLA TYPHIMURIUM, Strain/Indicator: TA98, Metabolic Activation: MOUSE, LUNG, S-9, PHENETHYL ISOTHIOCYANATE, Method: STANDARD PLATE): inactive; negative
- mutagenic call (Test System: AMES SALMONELLA TYPHIMURIUM, Strain/Indicator: TA98, Metabolic Activation: MOUSE, LUNG, S-9, Method: STANDARD PLATE): inactive; negative
- mutagenic call (Test System: AMES SALMONELLA TYPHIMURIUM, Strain/Indicator: TA98, Metabolic Activation: RAT, COLON, S-9, 3-METHYLCHOLANTHRENE, Method: STANDARD PLATE): inactive; negative
- mutagenic call (Test System: AMES SALMONELLA TYPHIMURIUM, Strain/Indicator: TA98, Metabolic Activation: RAT, LIVER, HEPATOCYTES, AROCLOR 1254, Method: PREINCUBATION): active; positive
- mutagenic call (Test System: AMES SALMONELLA TYPHIMURIUM, Strain/Indicator: TA98, Metabolic Activation: RAT, LIVER, HEPATOCYTES, Method: PREINCUBATION): active; positive
- mutagenic call (Test System: AMES SALMONELLA TYPHIMURIUM, Strain/Indicator: TA98, Metabolic Activation: RAT, LIVER, MICROSOMES, Method: PREINCUBATION): active; positive
- mutagenic call (Test System: AMES SALMONELLA TYPHIMURIUM, Strain/Indicator: TA98, Metabolic Activation: RAT, LIVER, S-9, AROCLOR 1254, Method: PREINCUBATION): active; positive
- mutagenic call (Test System: AMES SALMONELLA TYPHIMURIUM, Strain/Indicator: TA98, Metabolic Activation: RAT, LIVER, S-9, AROCLOR, Method: PREINCUBATION): active; positive
- mutagenic call (Test System: AMES SALMONELLA TYPHIMURIUM, Strain/Indicator: TA98, Metabolic Activation: RAT, LIVER, S-9, Method: STANDARD PLATE): active; positive
- mutagenic call (Test System: AMES SALMONELLA TYPHIMURIUM, Strain/Indicator: TA98, Metabolic Activation: S-9, Method: MICROSUSPENSION): active; positive
- mutagenic call (Test System: AMES SALMONELLA TYPHIMURIUM, Strain/Indicator: TA100, Metabolic Activation: RAT, LIVER, S-9, AROCLOR 1254, Method: PREINCUBATION): inactive; negative
- mutagenic call (Test System: AMES SALMONELLA TYPHIMURIUM, Strain/Indicator: TA1978, Metabolic Activation: S-9 (0.5 ML), Method: MICROSUSPENSION): active; positive
- mutagenic call (Test System: AMES SALMONELLA TYPHIMURIUM, Strain/Indicator: TA1978, Metabolic Activation: S-9 (2 MG/ML, 0.1 ML), Method: MICROSUSPENSION): inactive; negative
- mutagenic call (Test System: AMES SALMONELLA TYPHIMURIUM, Strain/Indicator: TA1978, Metabolic Activation: S-9 (2 MG/ML, 0.25 ML), Method: MICROSUSPENSION): active; positive
- mutagenic call (Test System: AMES SALMONELLA TYPHIMURIUM, Strain/Indicator: YG1019, Metabolic Activation: RAT LIVER S-9, AROCLOR, Method: PREINCUBATION): active; positive
- mutagenic call (Test System: AMES SALMONELLA TYPHIMURIUM, Strain/Indicator: YG1024, Metabolic Activation: RAT, COLON, S-9, 3-METHYLCHOLANTHRENE, Method: STANDARD PLATE): inactive; negative
- mutagenic call (Test System: AMES SALMONELLA TYPHIMURIUM, Strain/Indicator: YG1024, Metabolic Activation: RAT, LIVER, S-9, AROCLOR, Method: PREINCUBATION): active; positive
- mutagenic call (Test System: CHINESE HAMSTER V-79, Strain/Indicator: V-79/6-THIOGUANINE, Metabolic Activation: HAMSTER, PANCREAS DUCT, EPITHELIAL CELLS): active; positive
- mutagenic call (Test System: CHINESE HAMSTER V-79, Strain/Indicator: V-79/6-THIOGUANINE, Metabolic Activation: HUMAN, PANCREAS DUCT, EPITHELIAL CELLS): active; positive
- mutagenic call (Test System: CHINESE HAMSTER V-79, Strain/Indicator: XEMH1A2-MZ (HPRT)/6-THIOGUANINE, Metabolic Activation: NONE): active; positive
- mutagenic call (Test System: HUMAN COLON CANCER CELLS, Strain/Indicator: DLD-1 (HPRT)/6-THIOGUANINE, Metabolic Activation: MOUSE LIVER S-9, PHENOBARBITAL AND 5,6-BENZOFLAVONE, Method: SUSPENSION/PLATE): active; positive
- mutagenic call (Test System: HUMAN COLON CANCER CELLS, Strain/Indicator: HCT116 (HPRT)/6-THIOGUANINE, Metabolic Activation: MOUSE LIVER S-9, PHENOBARBITAL AND 5,6-BENZOFLAVONE, Method: SUSPENSION/PLATE): active; positive
- mutagenic call (Test System: UDS HUMAN HEPATOCYTES, Strain/Indicator: THY INCORP, Metabolic Activation: NONE, Method: AUTORADIOGRAPHY): active; positive
- mutagenic call (Test System: UDS MOUSE HEPATOCYTES, Strain/Indicator: THY INCORP, Metabolic Activation: NONE, Method: AUTORADIOGRAPHY): active; positive

SMILES: O=C(Nc1ccc(Cl)cc1)Nc1ccc(Cl)c(Cl)c1
- mutagenic call (Test System: AMES SALMONELLA TYPHIMURIUM, Strain/Indicator: TA98, Metabolic Activation: HAMSTER, LIVER, S-9, AROCLOR 1254 (10%), Method: PREINCUBATION): inactive; negative
- mutagenic call (Test System: AMES SALMONELLA TYPHIMURIUM, Strain/Indicator: TA98, Metabolic Activation: NONE, Method: PREINCUBATION): inactive; negative
- mutagenic call (Test System: AMES SALMONELLA TYPHIMURIUM, Strain/Indicator: TA98, Metabolic Activation: RAT, LIVER, S-9, AROCLOR 1254 (10%), Method: PREINCUBATION): inactive; negative
- mutagenic call (Test System: AMES SALMONELLA TYPHIMURIUM, Strain/Indicator: TA100, Metabolic Activation: HAMSTER, LIVER, S-9, AROCLOR 1254 (10%), Method: PREINCUBATION): inactive; negative
- mutagenic call (Test System: AMES SALMONELLA TYPHIMURIUM, Strain/Indicator: TA100, Metabolic Activation: NONE, Method: PREINCUBATION): inactive; negative
- mutagenic call (Test System: AMES SALMONELLA TYPHIMURIUM, Strain/Indicator: TA100, Metabolic Activation: RAT, LIVER, S-9, AROCLOR 1254 (10%), Method: PREINCUBATION): inactive; negative
- mutagenic call (Test System: AMES SALMONELLA TYPHIMURIUM, Strain/Indicator: TA1535, Metabolic Activation: HAMSTER, LIVER, S-9, AROCLOR 1254 (10%), Method: PREINCUBATION): inactive; negative
- mutagenic call (Test System: AMES SALMONELLA TYPHIMURIUM, Strain/Indicator: TA1535, Metabolic Activation: NONE, Method: PREINCUBATION): inactive; negative
- mutagenic call (Test System: AMES SALMONELLA TYPHIMURIUM, Strain/Indicator: TA1535, Metabolic Activation: RAT, LIVER, S-9, AROCLOR 1254 (10%), Method: PREINCUBATION): inactive; negative
- mutagenic call (Test System: AMES SALMONELLA TYPHIMURIUM, Strain/Indicator: TA1537, Metabolic Activation: HAMSTER, LIVER, S-9, AROCLOR 1254 (10%), Method: PREINCUBATION): inactive; negative
- mutagenic call (Test System: AMES SALMONELLA TYPHIMURIUM, Strain/Indicator: TA1537, Metabolic Activation: NONE, Method: PREINCUBATION): inactive; negative
- mutagenic call (Test System: AMES SALMONELLA TYPHIMURIUM, Strain/Indicator: TA1537, Metabolic Activation: RAT, LIVER, S-9, AROCLOR 1254 (10%), Method: PREINCUBATION): inactive; negative
